Laboratory results: US11649255B2, “Indazoles as hematopoietic progenitor kinase 1 (HPK1) inhibitors and methods using same” (1st Biotherapeutics, Inc., priority 2020, dated 2023)

Each compound was assayed against recombinant human HPK1 (Homo sapiens (Human), UniProt Q92918) (assay: HPK1 kinase assay (ADP-Glo)). Settings: 25 μM ATP, MBP substrate.
Format: biochemical
Method in brief: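 Activity was read as ADP formed, detected by ADP-Glo luminescence after the reaction of 5 ng recombinant human HPK1 with MBP and ATP (stocks 0.5 μg/μl and 25 μM) for 40 min at 30 °C. Buffer was Tris pH 7.5 with MgCl2, BSA and DTT, with compound in 0.5% DMSO. IC50 came from inhibition curves.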

recombinant human HPK1, sequence (Q92918 whole entry): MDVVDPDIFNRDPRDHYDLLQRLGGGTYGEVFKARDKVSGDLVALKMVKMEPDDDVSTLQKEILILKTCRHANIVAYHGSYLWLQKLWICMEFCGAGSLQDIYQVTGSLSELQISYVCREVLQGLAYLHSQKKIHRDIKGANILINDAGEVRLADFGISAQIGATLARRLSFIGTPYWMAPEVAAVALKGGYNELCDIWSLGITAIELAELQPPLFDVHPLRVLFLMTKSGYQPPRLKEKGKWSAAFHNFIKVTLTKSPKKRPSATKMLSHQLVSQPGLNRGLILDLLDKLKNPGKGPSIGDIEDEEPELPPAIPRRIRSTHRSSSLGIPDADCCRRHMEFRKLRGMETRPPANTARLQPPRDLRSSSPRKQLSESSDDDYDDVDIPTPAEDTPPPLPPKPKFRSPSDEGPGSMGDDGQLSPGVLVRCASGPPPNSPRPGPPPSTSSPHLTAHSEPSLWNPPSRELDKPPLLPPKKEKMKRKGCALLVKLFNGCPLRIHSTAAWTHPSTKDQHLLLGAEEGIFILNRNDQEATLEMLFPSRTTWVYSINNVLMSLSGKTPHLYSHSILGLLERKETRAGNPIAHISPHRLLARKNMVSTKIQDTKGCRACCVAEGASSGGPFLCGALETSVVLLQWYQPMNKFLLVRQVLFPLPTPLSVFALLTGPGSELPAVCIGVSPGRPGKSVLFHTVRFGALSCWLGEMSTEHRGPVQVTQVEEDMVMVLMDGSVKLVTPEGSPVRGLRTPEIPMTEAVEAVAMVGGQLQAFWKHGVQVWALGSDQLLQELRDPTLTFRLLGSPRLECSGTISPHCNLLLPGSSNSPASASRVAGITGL

| IC50 [nM] | Structure (SMILES) |
| --- | --- |
| < 100 | CC(c1c(F)c(Cl)c(-c2ccc3nc(NC(=O)[C@@H]4C[C@@H]4F)cn3c2)c2cn[nH]c12)[S+](C)[O-] (stereo partly drawn) [Example 443, (1S,2S)-N-(6-(5-chloro-6-fluoro-7-(1-(methylsulflnyl)ethyl)-1H-indazol-4-yl)imidazo[1,2-a]pyridin-2-yl)-2-fluorocyclopropane-1-carboxamide] |
| < 100 | CC(c1c(F)c(Cl)c(-c2ccc3nc(NC(=O)[C@@H]4C[C@@H]4F)cn3c2)c2cn[nH]c12)S(C)(=O)=O (stereo partly drawn) [Example 444, (1S,2S)-N-(6-(5-chloro-6-fluoro-7-(1-(methylsulfonyl)ethyl)-1H-indazol-4-yl)imidazo[1,2-a]pyridin-2-yl)-2-fluorocyclopropane-1-carboxamide] |
| < 100 | CCNC(=O)C(C)c1c(F)c(Cl)c(-c2ccc3nc(NC(=O)[C@@H]4C[C@@H]4F)cn3c2)c2cn[nH]c12 (stereo partly drawn) [Example 445, (1S,2S)-N-(6-(5-chloro-7-(1-(ethylamino)-1-oxopropan-2-yl)-6-fluoro-1H-indazol-4-yl)imidazo[1,2-a]pyridin-2-yl)-2-fluorocyclopropane-1-carboxamide] |
| < 100 | O=C(Nc1cc2cc(-c3c(Cl)ccc4[nH]ncc34)ccn2n1)[C@@H]1C[C@@H]1F [Example 448, (1S,2S)-N-(5-(5-chloro-1H-indazol-4-yl)pyrazolo[1,5-a]pyridin-2-yl)-2-fluorocyclopropane-1-carboxamide] |
| < 100 | O=C(Nc1cc2cc(-c3c(C(F)(F)F)ccc4[nH]ncc34)ccn2n1)[C@@H]1C[C@@H]1F [Example 451, (1S,2S)-2-fluoro-N-(5-(5-(trifluoromethyl)-1H-indazol-4-yl)pyrazolo[1,5-a]pyridin-2-yl)cyclopropane-1-carboxamide] |
| < 100 | CCc1ccc2[nH]ncc2c1-c1ccn2nc(NC(=O)[C@@H]3C[C@@H]3F)cc2c1 [Example 452, (1S,2S)-N-(5-(5-ethyl-1H-indazol-4-yl)pyrazolo[1,5-a]pyridin-2-yl)-2-fluorocyclopropane-1-carboxamide] |
| 501 to 1000 | CC(=O)c1ccc2[nH]ncc2c1-c1ccn2nc(NC(=O)[C@@H]3C[C@@H]3F)cc2c1 [Example 453, (1S,2S)-N-(5-(5-acetyl-1H-indazol-4-yl)pyrazolo[1,5-a]pyridin-2-yl)-2-fluorocyclopropane-1-carboxamide] |
| < 100 | O=C(Nc1cc2cc(-c3c(Br)ccc4[nH]ncc34)ccn2n1)[C@@H]1C[C@@H]1F [Example 455, (1S,2S)-N-(5-(5-bromo-1H-indazol-4-yl)pyrazolo[1,5-a]pyridin-2-yl)-2-fluorocyclopropane-1-carboxamide] |
| 101 to 500 | O=C(Nc1cc2cc(-c3c(C4CC4)ccc4[nH]ncc34)ccn2n1)[C@@H]1C[C@@H]1F [Example 459, (1S,2S)-N-(5-(5-cyclopropyl-1H-indazol-4-yl)pyrazolo[1,5-a]pyridin-2-yl)-2-fluorocyclopropane-1-carboxamide] |
| > 1000 | O=C(Nc1cc2cc(-c3c(CO)ccc4[nH]ncc34)ccn2n1)[C@@H]1C[C@@H]1F [Example 461, (1S,2S)-2-fluoro-N-(5-(5-(hydroxymethyl)-1H-indazol-4-yl)pyrazolo[1,5-a]pyridin-2-yl)cyclopropane-1-carboxamide] |
| < 100 | CSc1ccc2[nH]ncc2c1-c1ccn2nc(NC(=O)[C@@H]3C[C@@H]3F)cc2c1 [Example 463, (1S,2S)-2-fluoro-N-(5-(5-(methylthio)-1H-indazol-4-yl)pyrazolo[1,5-a]pyridin-2-yl)cyclopropane-1-carboxamide] |
| < 100 | O=C(Nc1cc2cc(-c3c(Br)c(F)cc4[nH]ncc34)ccn2n1)[C@@H]1C[C@@H]1F [Example 464, (1S,2S)-N-(5-(5-bromo-6-fluoro-1H-indazol-4-yl)pyrazolo[1,5-a]pyridin-2-yl)-2-fluorocyclopropane-1-carboxamide] |
| < 100 | O=C(Nc1cc2cc(-c3c(C(F)F)ccc4[nH]ncc34)ccn2n1)[C@@H]1C[C@@H]1F [Example 465, (1S,2S)-N-(5-(5-(difluoromethyl)-1H-indazol-4-yl)pyrazolo[1,5-a]pyridin-2-yl)-2-fluorocyclopropane-1-carboxamide] |

Further lines, the compound ahead of its results:

| Structure (SMILES) | IC50 [nM] |
| --- | --- |
| CC(NC(=O)C(F)F)c1c(F)c(Cl)c(-c2ccc3nc(NC(=O)[C@@H]4C[C@@H]4F)cn3c2)c2cn[nH]c12 (stereo partly drawn) [Example 441, (1S,2S)-N-(6-(5-chloro-7-(1-(2,2-difluoroacetamido)ethyl)-6-fluoro-1H-indazol-4-yl)imidazo[1,2-a]pyridin-2-yl)-2-fluorocyclopropane-1-carboxamide] | < 100 |
| Cc1ncc(-c2c(F)c(Cl)c(-c3ccc4nc(NC(=O)[C@@H]5C[C@@H]5F)cn4c3)c3cn[nH]c23)[nH]1 [Example 442, (1S,2S)-N-(6-(5-chloro-6-fluoro-7-(2-methyl-1H-imidazol-5-yl)-1H-indazol-4-yl)imidazo[1,2-a]pyridin-2-yl)-2-fluorocyclopropane-1-carboxamide] | < 100 |
| C=Cc1c(F)cc2[nH]ncc2c1-c1ccn2nc(NC(=O)[C@@H]3C[C@@H]3F)cc2c1 [Example 447, (1S,2S)-2-fluoro-N-(5-(6-fluoro-5-vinyl-1H-indazol-4-yl)pyrazolo[1,5-a]pyridin-2-yl)cyclopropane-1-carboxamide] | < 100 |
| COc1ccc2[nH]ncc2c1-c1ccn2nc(NC(=O)[C@@H]3C[C@@H]3F)cc2c1 [Example 449, (1S,2S)-2-fluoro-N-(5-(5-methoxy-1H-indazol-4-yl)pyrazolo[1,5-a]pyridin-2-yl)cyclopropane-1-carboxamide] | 101 to 500 |
| CN(C)c1ccc2[nH]ncc2c1-c1ccn2nc(NC(=O)[C@@H]3C[C@@H]3F)cc2c1 [Example 450, (1S,2S)-N-(5-(5-(dimethylamino)-1H-indazol-4-yl)pyrazolo[1,5-a]pyridin-2-yl)-2-fluorocyclopropane-1-carboxamide] | > 1000 |
| CN(C)c1c(F)cc2[nH]ncc2c1-c1ccn2nc(NC(=O)[C@@H]3C[C@@H]3F)cc2c1 [Example 454, (1S,2S)-N-(5-(5-(dimethylamino)-6-fluoro-1H-indazol-4-yl)pyrazolo[1,5-a]pyridin-2-yl)-2-fluorocyclopropane-1-carboxamide] | 101 to 500 |
| N#Cc1ccc2[nH]ncc2c1-c1ccn2nc(NC(=O)[C@@H]3C[C@@H]3F)cc2c1 [Example 456, (1S,2S)-N-(5-(5-cyano-1H-indazol-4-yl)pyrazolo[1,5-a]pyridin-2-yl)-2-fluorocyclopropane-1-carboxamide] | 501 to 1000 |
| O=C(Nc1cc2cc(-c3c(C4CC4)c(F)cc4[nH]ncc34)ccn2n1)[C@@H]1C[C@@H]1F [Example 457, (1S,2S)-N-(5-(5-cyclopropyl-6-fluoro-1H-indazol-4-yl)pyrazolo[1,5-a]pyridin-2-yl)-2-fluorocyclopropane-1-carboxamide] | < 100 |
| O=C(Nc1cc2cc(-c3c(Cl)c(F)cc4[nH]ncc34)ccn2n1)[C@@H]1C[C@@H]1F [Example 458, (1S,2S)-N-(5-(5-chloro-6-fluoro-1H-indazol-4-yl)pyrazolo[1,5-a]pyridin-2-yl)-2-fluorocyclopropane-1-carboxamide] | < 100 |
| Cc1c(F)cc2[nH]ncc2c1-c1ccn2nc(NC(=O)[C@@H]3C[C@@H]3F)cc2c1 [Example 460, (1S,2S)-2-fluoro-N-(5-(6-fluoro-5-methyl-1H-indazol-4-yl)pyrazolo[1,5-a]pyridin-2-yl)cyclopropane-1-carboxamide] | < 100 |
| CC(C)c1c(F)cc2[nH]ncc2c1-c1ccn2nc(NC(=O)[C@@H]3C[C@@H]3F)cc2c1 [Example 462, (1S,2S)-2-fluoro-N-(5-(6-fluoro-5-isopropyl-1H-indazol-4-yl)pyrazolo[1,5-a]pyridin-2-yl)cyclopropane-1-carboxamide] | < 100 |
| CCc1c(F)cc2[nH]ncc2c1-c1ccn2nc(NC(=O)[C@@H]3C[C@@H]3F)cc2c1 [Example 466, (1S,2S)-N-(5-(5-ethyl-6-fluoro-1H-indazol-4-yl)pyrazolo[1,5-a]pyridin-2-yl)-2-fluorocyclopropane-1-carboxamide] | < 100 |
| COc1c(F)cc2[nH]ncc2c1-c1ccn2nc(NC(=O)[C@@H]3C[C@@H]3F)cc2c1 [Example 467, (1S,2S)-2-fluoro-N-(5-(6-fluoro-5-methoxy-1H-indazol-4-yl)pyrazolo[1,5-a]pyridin-2-yl)cyclopropane-1-carboxamide] | < 100 |
| O=C(Nc1cc2cc(-c3c(C(F)F)c(F)cc4[nH]ncc34)ccn2n1)[C@@H]1C[C@@H]1F [Example 468, (1S,2S)-N-(5-(5-(difluoromethyl)-6-fluoro-1H-indazol-4-yl)pyrazolo[1,5-a]pyridin-2-yl)-2-fluorocyclopropane-1-carboxamide] | < 100 |
| Cc1c(F)cc2[nH]nc(Cl)c2c1-c1ccn2nc(NC(=O)[C@@H]3C[C@@H]3F)cc2c1 [Example 469, (1S,2S)-N-(5-(3-chloro-6-fluoro-5-methyl-1H-indazol-4-yl)pyrazolo[1,5-a]pyridin-2-yl)-2-fluorocyclopropane-1-carboxamide] | < 100 |
| Cc1c(F)cc2[nH]nc(C)c2c1-c1ccn2nc(NC(=O)[C@@H]3C[C@@H]3F)cc2c1 [Example 470, (1S,2S)-2-fluoro-N-(5-(6-fluoro-3,5-dimethyl-1H-indazol-4-yl)pyrazolo[1,5-a]pyridin-2-yl)cyclopropane-1-carboxamide] | 101 to 500 |
| CSc1n[nH]c2cc(F)c(C)c(-c3ccn4nc(NC(=O)[C@@H]5C[C@@H]5F)cc4c3)c12 [Example 471, (1S,2S)-2-fluoro-N-(5-(6-fluoro-5-methyl-3-(methylthio)-1H-indazol-4-yl)pyrazolo[1,5-a]pyridin-2-yl)cyclopropane-1-carboxamide] | 101 to 500 |
| C#Cc1n[nH]c2cc(F)c(C)c(-c3ccn4nc(NC(=O)[C@@H]5C[C@@H]5F)cc4c3)c12 [Example 472, (1S,2S)-N-(5-(3-ethynyl-6-fluoro-5-methyl-1H-indazol-4-yl)pyrazolo[1,5-a]pyridin-2-yl)-2-fluorocyclopropane-1-carboxamide] | > 1000 |
